Experimental data published in ChEMBL document CHEMBL5150075 (J Med Chem, 2022).

Experiments:
DU-145 = experiment: Antiproliferative activity against human DU-145 cells assessed as inhibition of cell growth incubated for 72 hrs by MTT assay; assay type: functional, cell-based; conditions: DU-145, 72 h
MCF7 = experiment: cells; conditions: Homo sapiens, MCF7, 72 h
Description: Antiproliferative activity against human MCF7 cells assessed as inhibition of cell growth incubated for 72 hrs by MTT assay

HUVEC = experiment: Anti-angiogenesis activity against HUVEC cells assessed as inhibition of cell growth incubated for 72 hrs by MTT assay; assay type: functional, cell-based; conditions: Homo sapiens
MCF7R = experiment: Antiproliferative activity against paclitaxel-resistant human MCF7R cells assessed as inhibition of cell growth incubated for 72 hrs by MTT assay; assay type: functional, cell-based
HepG2 = experiment: cells; conditions: Homo sapiens, HepG2, 72 h
BGC-823 = experiment: Antiproliferative activity against human BGC-823 cells assessed as inhibition of cell growth incubated for 72 hrs by MTT assay; assay type: functional, cell-based; conditions: BGC-823, 72 h
NCI-H1299 = experiment: Antiproliferative activity against human NCI-H1299 cells assessed as inhibition of cell growth incubated for 72 hrs by MTT assay; assay type: functional, cell-based; conditions: NCI-H1299, 72 h
A549 [1] = experiment: Antiproliferative activity against paclitaxel-resistant human A549 cells assessed as inhibition of cell growth incubated for 72 hrs by MTT assay; assay type: functional, cell-based; conditions: A549, 72 h
B16-F10 = experiment: Antiproliferative activity against mouse B16-F10 cells assessed as inhibition of cell growth incubated for 72 hrs by MTT assay; assay type: functional, cell-based; conditions: B16-F10, 72 h
MDA-MB-231 = experiment: cells; conditions: Homo sapiens, MDA-MB-231, 72 h
HCT-8 = experiment: Antiproliferative activity against human HCT-8 cells assessed as inhibition of cell growth incubated for 72 hrs by MTT assay; assay type: functional, cell-based; conditions: HCT-8, 72 h
SW1990 = experiment: Antiproliferative activity against human SW1990 cells assessed as inhibition of cell growth incubated for 72 hrs by MTT assay; assay type: functional, cell-based; conditions: SW1990, 72 h
HGC-27 = experiment: Antiproliferative activity against human HGC-27 cells assessed as inhibition of cell growth incubated for 72 hrs by MTT assay; assay type: functional, cell-based; conditions: HGC-27, 72 h
A549 [2] = experiment: Antitumor activity against paclitaxel-resistant human A549 cells xenografted in BALB/c nude mouse assessed as tumor growth inhibition at 24 mg/kg, po administered once daily and measured twice a week relative to control; assay type: functional; conditions: read-out: TGI
HCT-116 = experiment: cells; conditions: Homo sapiens, HCT-116, 72 h
Description: Antiproliferative activity against human HCT-116 cells assessed as inhibition of cell growth incubated for 72 hrs by MTT assay

NCI-H460 = experiment: cells; conditions: Homo sapiens, NCI-H460, 72 h
Description: Antiproliferative activity against human NCI-H460 cells assessed as inhibition of cell growth incubated for 72 hrs by MTT assay

NCI-H1437 = experiment: Antiproliferative activity against human NCI-H1437 cells assessed as inhibition of cell growth incubated for 72 hrs by MTT assay; assay type: functional, cell-based; conditions: NCI-H1437, 72 h
A549 [3] = experiment: cells; conditions: Homo sapiens, A549, 72 h

Structure (SMILES)	IC50 (DU-145) [µM]	further results
Cc1ccc(S(=O)(=O)Nc2ccc(Cl)c(C(=O)NCc3cccnc3)c2)cc1	> 10	–
Cc1ccc(S(=O)(=O)Nc2cc(Cl)cc(C(=O)NCc3cccnc3)c2)cc1	0.34	–
CNC(=O)c1ccc(C)c(NS(=O)(=O)c2ccc(C)cc2)c1	> 10	–
Cc1ccc(C(=O)NCc2cccnc2)cc1NS(=O)(=O)c1ccc2c(c1)CCC2	0.9	–
CC(=O)O[C@H]1C(=O)[C@@]2(C)[C@H]([C@H](OC(=O)c3ccccc3)[C@]3(O)C[C@H](OC(=O)[C@H](O)[C@@H](NC(=O)c4ccccc4)c4ccccc4)C(C)=C1C3(C)C)[C@]1(OC(C)=O)CO[C@@H]1C[C@@H]2O [PACLITAXEL]	< 0.001	IC50 (MCF7): < 0.001 µM; IC50 (HUVEC): 0.071 µM; IC50 (MCF7R): 0.19 µM; IC50 (HepG2): < 0.001 µM; IC50 (BGC-823): < 0.001 µM; IC50 (NCI-H1299): 0.009 µM; IC50 (A549 [1]): 0.39 µM; IC50 (B16-F10): < 0.001 µM; IC50 (MDA-MB-231): < 0.001 µM; IC50 (HCT-8): 0.086 µM; IC50 (SW1990): 0.01 µM; IC50 (HGC-27): < 0.001 µM; inhibition in vivo at 24 mg/kg (A549 [2]): 53.8%; IC50 (HCT-116): < 0.001 µM; IC50 (NCI-H460): < 0.001 µM; IC50 (NCI-H1437): < 0.001 µM
Cc1ccc(S(=O)(=O)Nc2cc(C(=O)NCc3cccnc3)cc(C(F)(F)F)c2)cc1	> 10	–
CCOc1ccc(S(=O)(=O)Nc2cc(C(=O)NCc3cccnc3)ccc2C)cc1	0.86	–
Cc1ccc(C(=O)NCc2cccnc2)cc1NS(=O)(=O)c1ccc2ccccc2c1	1	–
Cc1ccc(C(=O)NCc2cccnc2)cc1NS(=O)(=O)c1ccc(F)cc1	3.5	–
Cc1ccc(S(=O)(=O)Nc2cc(C(=O)NCc3ccncc3)ccc2C)cc1	1.7	–
Cc1ccc(S(=O)(=O)Nc2cccc(C(=O)NCc3cccnc3)c2)cc1	0.7	–
Cc1ccc(C(=O)NCc2cccnc2)cc1NS(=O)(=O)c1ccc2c(c1)OCCO2	0.42	–
Cc1ccc(C(=O)NCc2cccnc2)cc1NS(=O)(=O)c1ccc(OC(F)(F)F)cc1	> 10	–
Cc1ccc(C(=O)NCc2cccnc2)cc1NS(=O)(=O)c1ccc(C(C)(C)C)cc1	> 10	–
COc1ccc(NS(=O)(=O)c2ccc(C)cc2)cc1C(=O)NCc1cccnc1	> 10	–
CCc1ccc(C(=O)NCc2cccnc2)cc1NS(=O)(=O)c1ccc(C)cc1	0.86	–
Cc1ccc(CNC(=O)c2ccc(C)c(NS(=O)(=O)c3ccc(C4CC4)cc3)c2)cn1	0.012	–
Cc1ccc(S(=O)(=O)Nc2cc(C(=O)NCc3ccccn3)ccc2C)cc1	> 10	–
Cc1ccc(S(=O)(=O)Nc2cc(C(=O)NCc3cccnc3)ccc2C)cc1C	0.97	–
Cc1ccc(C(=O)NCc2cccnc2)cc1NS(=O)(=O)c1ccc(C#N)cc1	> 10	–
CCCc1ccc(S(=O)(=O)Nc2cc(C(=O)NCc3cccnc3)ccc2C)cc1	9.7	–
Cc1ccc(S(=O)(=O)Nc2cc(C(=O)NCc3cccnc3)ccc2C)c(C)c1	0.5	–
Cc1ccc(C(=O)NCc2cccnc2)cc1NS(=O)(=O)c1ccc(C(F)(F)F)cc1	5.3	–
Cc1ccc(S(=O)(=O)Nc2cc(C(=O)NCc3cnccn3)ccc2C)cc1	> 10	–
Cc1ccc(S(=O)(=O)Nc2cc(C(=O)NCc3cccnc3)ccc2C(F)(F)F)cc1	> 10	–
COc1cc2c(c(OC)c1OC)-c1ccc(OC)c(=O)cc1[C@@H](NC(C)=O)CC2 [COLCHICINE]	0.003	IC50 (MCF7): 0.006 µM; IC50 (HepG2): 0.002 µM; IC50 (BGC-823): 0.016 µM; IC50 (NCI-H1299): 0.004 µM; IC50 (B16-F10): 0.003 µM; IC50 (A549 [3]): 0.03 µM; IC50 (MDA-MB-231): 0.023 µM; IC50 (HCT-8): 0.022 µM; IC50 (SW1990): 0.01 µM; IC50 (HGC-27): 0.003 µM; IC50 (HCT-116): 0.003 µM; IC50 (NCI-H460): 0.054 µM; IC50 (NCI-H1437): 0.002 µM
COc1ccc(C(=O)NCc2cccnc2)cc1NS(=O)(=O)c1ccc(C)cc1	9.5	–

Structure (SMILES)	IC50 (DU-145) [µM]	further results
Cc1ccc(S(=O)(=O)Nc2ccc(C)c(C(=O)NCc3cccnc3)c2)cc1	2	–
Cc1ccc(S(=O)(=O)Nc2cc(C(=O)NCCc3cccnc3)ccc2C)cc1	> 10	–
Cc1ccc(C(=O)NCc2cccnc2)cc1NS(=O)(=O)c1ccc(C2CC2)cc1	0.05	–
Cc1ccc(C(=O)NCc2cccnc2)cc1NS(=O)(=O)c1ccc2c(c1)OCO2	0.61	–
CCCCc1ccc(S(=O)(=O)Nc2cc(C(=O)NCc3cccnc3)ccc2C)cc1	> 10	–
Cc1ccc(S(=O)(=O)Nc2cc(C)cc(C(=O)NCc3cccnc3)c2)cc1	0.34	–
Cc1ccc(S(=O)(=O)Nc2cc(C(=O)NC(C)c3cnccn3)ccc2C)cc1 (stereo not drawn)	0.51	–
Cc1ccc(S(=O)(=O)Nc2cc(C(=O)Nc3cccnc3)ccc2C)cc1	> 10	–
Cc1ccc(C(=O)NCc2cccnc2)cc1NS(=O)(=O)c1ccc2c(c1)CCO2	1.2	–
Cc1ccc(C(=O)NCc2cccnc2)cc1NS(=O)(=O)c1ccccc1	> 10	–
COc1cc(NS(=O)(=O)c2ccc(C)cc2)cc(C(=O)NCc2cccnc2)c1	6.2	–
Cc1ccc(S(=O)(=O)Nc2cc(C(=O)NCc3ccc(C(F)(F)F)nc3)ccc2C)cc1	0.2	–
Cc1ccc(S(=O)(=O)Nc2cc(C(=O)NCc3ccccc3)ccc2C)cc1	> 10	–
Cc1ccc(S(=O)(=O)Nc2cc(C(=O)NC3(c4cnccn4)CC3)ccc2C)cc1	0.8	–
Cc1ccc(C(=O)NCc2cccnc2)cc1NS(=O)(=O)c1ccc(Cl)cc1	0.93	–
Cc1ccc(S(=O)(=O)Nc2cc(C(=O)NCc3cccnc3)ccc2C)cc1	0.12	–
Cc1ccc(S(=O)(=O)Nc2cc(C(=O)NCc3cccnc3)ccc2F)cc1	0.79	–
Cc1ccc(S(=O)(=O)Nc2cc(C(=O)NCc3ccc(Cl)nc3)ccc2C)cc1	0.065	–
COc1ccc(S(=O)(=O)Nc2cc(C(=O)NCc3cccnc3)ccc2C)cc1	0.18	–
Cc1ccc(S(=O)(=O)Nc2cc(F)cc(C(=O)NCc3cccnc3)c2)cc1	0.9	–
Cc1ccc(S(=O)(=O)Nc2cc(C#N)cc(C(=O)NCc3cccnc3)c2)cc1	> 10	–
Cc1ccc(S(=O)(=O)Nc2ccc(F)c(C(=O)NCc3cccnc3)c2)cc1	> 10	–
Cc1ccc(C(=O)NCc2cccnc2)cc1NS(=O)(=O)c1ccc(C(C)C)cc1	1	–
CCc1ccc(S(=O)(=O)Nc2cc(C(=O)NCc3ccc(C)nc3)ccc2C)cc1	0.011	–
Cc1ccc(S(=O)(=O)Nc2cc(C(=O)NCc3ccnnc3)ccc2C)cc1	1.3	–
Cc1ccc(S(=O)(=O)Nc2cc(C(=O)NCc3cccnc3)ccc2Cl)cc1	0.8	–
CCc1ccc(S(=O)(=O)Nc2cc(C(=O)NCc3cccnc3)ccc2C)cc1	0.04	–
